Experimental data reported in PMC12562681, “Targeting a Tau Kinase Cdk5, Cyclin-Dependent Kinase: A Blood-Based Diagnostic Marker and Therapeutic Earmark for Alzheimer’s Disease” (Biomolecules, 2025).
Read-outs that look alike come from different tables or passages of the source. Peptide text beside a SMILES is read from it.

Tests used:
[1] = tested on: SHSY-5Y cells; assay: Cytotoxicity of peptide in SHSY-5Y cells; type: cell-based; settings: discussion statement, concentration and time not given
[2] = tested on: HEK-293 cells; assay: Cell cytotoxicity assay in HEK-293 cells (MTT); type: cell-based; settings: 24 h, 48 h and 72 h, up to 50 µM, triplicate
From the text: (§1) SH-SY5Y and HEK 293 cells were purchased from NCCS, Pune, India, and were maintained in Ham’s F12 (cat. no. 21700075) and Dulbecco’s Modified Eagle Medium (DMEM, cat. no. 12800017) nutrient media (Gibco, Waltham, MA, USA), respectively, supplemented with 10% (v/v) Fetal Bovine Serum (FBS, cat. no. 10270106) and 1% antibiotic–antimycotic solution (cat. no. CC4003010L, CELL clone, New Delhi, India). The SH-SY5Y cells used in the experiment were of passage number 42–46. Cells were maintained as a monolayer culture at 37 °C with 5% CO2 and 95% relative humidity. Potential contamination in all cells was assessed through STR profiling (DNA Forensic Laboratory Private Limited, New Delhi, India).
The peptide’s effect was initially assessed using the normal HEK 293 cell line, and the cell viability was determined by the 3-(4,5-dimethylthiazol-2-yl)-2,5-diphenyltetrazolium bromide (MTT) (cat. no. T0793) reduction assay. Cells were seeded in 96-well plates at a density of 5 × 10^3 cells per 100 μL per well. Cells were cultured for 24 h and then treated with different concentrations of peptide, i.e., 10 µM, 20 µM, and 50 µM, for different time intervals (24 h, 48 h, and 72 h). At the end of treatment, 10 μL MTT (5 mg/mL) was added in each well and incubated for 4 h at 37 °C. […] The absorbance value at 572 nm was measured using a microplate reader. […]

[3] = tested on: SH-SY5Y cells; type: cell-based; settings: triplicate
From the text: as §1
Aggregated Aβ25–35 was employed to induce neurotoxicity in SH-SY5Y cells due to its ability to replicate the physiological and biological characteristics of Aβ-amyloid, known to mediate neurotoxic effects and contribute to neuronal cell damage. The effect of peptide on neurotoxicity caused by aggregated Aβ25–35 was assessed via MTT assay. Cells were seeded in 96-well plates at a density of 1 × 10^4 cells per 100 μL per well. Cells were cultured for 24 h and then treated with 20 µM retinoic acid for differentiation. The culture medium was routinely replaced every alternate day for a period of seven days. A stock solution of 20 mM Aβ25–35 was prepared by dissolving 2.12 mg of synthesized Aβ25–35 in 100 µL of 1× PBS and allowed to aggregate at 37 °C for 7 days. Cells were treated with 20 µM aggregated Aβ25–35, along with different concentrations of the peptide YCWS (2 µM, 5 µM, 10 µM, 15 µM, and 20 µM) for 24 h, 48 h, and 72 h. After completion of the treatment duration, cell viability was determined using the MTT assay as described above.

[4] = target: T1, Cdk5 (Homo sapiens, UniProt Q00535); assay: Binding study of peptide by SPR (Ni-NTA chip, immobilized recombinant Cdk5); settings: recombinant Cdk5 on Ni-NTA sensor chip, peptide 0.4, 0.6 and 1 µM, BIA evaluation 3.0, read-out: dissociation constant (KD)
T1 construct: host or cells: E. coli BL21
T1 sequence (Q00535 whole entry): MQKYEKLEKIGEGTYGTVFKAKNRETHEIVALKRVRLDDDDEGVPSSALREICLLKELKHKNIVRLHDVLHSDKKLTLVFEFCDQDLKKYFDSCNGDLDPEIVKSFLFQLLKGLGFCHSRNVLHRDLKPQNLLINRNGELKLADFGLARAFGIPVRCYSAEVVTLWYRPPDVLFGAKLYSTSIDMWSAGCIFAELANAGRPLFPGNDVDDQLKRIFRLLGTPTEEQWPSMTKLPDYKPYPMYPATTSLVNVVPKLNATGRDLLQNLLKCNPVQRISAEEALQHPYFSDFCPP
Experimental: Different concentrations of purified recombinant human Cdk5 and Mcl1 proteins were passed over the respective flow cells, and corresponding response units (RU) were noted. The standard curve was prepared by plotting different concentrations of pure proteins versus the corresponding RU (Figure S1). Serum samples were diluted (1:79) with HBS-EP buffer and passed over the respective flow cell. The RU for each sample was noted, and the concentration of Cdk5 and Mcl1 in the serum sample was derived from their respective standard curves.
The recombinant Cdk5 protein was immobilized on the Ni-NTA sensor chip by passing NiCl2 solution and the protein. Different concentrations of peptide YCWS (0.4 µM, 0.6 µM, and 1 µM) were passed over it, and changes in RU were noted. The association constant (KA) and dissociation constant (KD) values were calculated using the BIA evaluation 3.0 software.

[5] = tested on: Aβ-amyloid; assay: Aβ-amyloid expression by Western blot in Aβ25–35-treated SH-SY5Y cells; type: cell-based; settings: aggregated Aβ25–35 alone
Experimental: (§2) The concentration of total protein in cell lysate was measured using the bicinchoninic acid (BCA) assay. Samples were prepared using the 6× protein loading dye and incubated at 95 °C for 15 min. Equal concentrations of cell lysate (50 µg/lane) were fractionated by 10% SDS-PAGE and transferred to PVDF membrane. The membrane was blocked with 5% NFM for 2 h and then probed with their respective primary antibodies: Cdk5 (1:400) and Mcl1 (1:1000), mouse IgG anti-β-amyloid (1:200) (Sc28365), mouse IgG anti-Tau (Tau-46) (1:200) (Santa Cruz Biotechnology Inc., Dallas, TX, USA, Sc32274), rabbit IgG anti-phospho-Tau (Thr181) (1:350) (Cell Signaling Technology, Inc., Danvers, MA, USA, DAF4G), and rabbit antibody IgG anti-β-actin (1:1000) (Cell Signaling Technology, Inc., Danvers, MA, USA). The membranes were incubated with the secondary anti-rabbit and anti-mouse (cat. no. Sc2004, Sc2005) HRP-conjugated antibody (1:4000) at room temperature for 1 h.

[6] = tested on: Cdk5; assay: Cdk5 expression by Western blot in Aβ25–35-treated SH-SY5Y cells; type: cell-based; settings: aggregated Aβ25–35, SH-SY5Y
Experimental: as §2

[7] = tested on: Tau; assay: Tau expression by Western blot in Aβ25–35-treated SH-SY5Y cells; type: cell-based; settings: aggregated Aβ25–35 alone
Experimental: as §2

[8] = tested on: phospho-Tau (Thr181); assay: p-Tau expression by Western blot in Aβ25–35-treated SH-SY5Y cells; type: cell-based; settings: aggregated Aβ25–35 alone
Experimental: as §2

[9] = tested on: Cdk5 mRNA; assay: Cdk5 mRNA by RT-PCR in Aβ25–35-treated SH-SY5Y cells; type: cell-based; settings: aggregated Aβ25–35 alone; δ-δ CT, GAPDH; triplicate
From the text: [36]; Mcl1 forward primer-[NT] and reverse primer-[…] forward primer-[NT] and reverse primer-[NT].

Compound	cytotoxicity, SHSY-5Y cells [1]	cytotoxicity, HEK-293 cells [2]	cell viability, rescue ([3]; YCWS 2 µM + 20 µM aggregated Aβ25–35, MTT, time of value not stated (24, 48, 72 h tested))	cell viability, rescue ([3]; YCWS 5 µM + 20 µM aggregated Aβ25–35, MTT, time of value not stated (24, 48, 72 h tested))	cell viability, rescue ([3]; YCWS 10 µM + 20 µM aggregated Aβ25–35, MTT, time of value not stated (24, 48, 72 h tested))	cell viability, rescue ([3]; YCWS 15 µM + 20 µM aggregated Aβ25–35, MTT, time of value not stated (24, 48, 72 h tested))	cell viability, rescue ([3]; YCWS 20 µM ("up to") + 20 µM aggregated Aβ25–35, MTT, p < 0.001 vs Aβ (Mann–Whitney), time of value not stated)	Kd [4]	Aβ-amyloid expression [5]	Cdk5 protein expression [6]	tau expression [7]	p-Tau expression [8]	Cdk5 mRNA expression, fold vs control group [9]
N[C@@H](Cc1ccc(O)cc1)C(=O)N[C@@H](CS)C(=O)N[C@@H](Cc1c[nH]c2ccccc12)C(=O)N[C@@H](CO)C(=O)O [YCWS] (H-YCWS-OH)	non-toxic	nontoxic	87.28%	91.47%	92.20%	98.27%	98.55%	3.94 nM					
CC[C@H](C)[C@H](NC(=O)[C@H](C)NC(=O)CNC(=O)[C@H](CCCCN)NC(=O)[C@H](CC(N)=O)NC(=O)[C@H](CO)NC(=O)CN)C(=O)N[C@H](C(=O)NCC(=O)N[C@@H](CC(C)C)C(=O)N[C@@H](CCSC)C(=O)O)[C@@H](C)CC [Aβ25–35] (H-GSNKGAIIGLM-OH; N-terminus and C-terminus assumed)									increased	increased the expression of Cdk5	increased	increased	1.85 fold
